Laboratory results taken from ChEMBL document CHEMBL1141373 (J Med Chem, 2007).
Blank lines part the entries; values can stand above or below the compound they belong to. The source made the active and inactive calls. The calls are words filed in the database; no cut-off is given here.

Key:
[1] = target: T1, Glutamate receptor ionotropic, NMDA 2B (Homo sapiens, UniProt Q05586+Q13224); experiment: Displacement of [3H](E)-N1-(2-methoxybenzyl)cinnamamidine from human NR2B expressed in Ltk- cells; assay type: cell-based
Cytochrome P450 2D6 = Cytochrome P450 2D6 (Homo sapiens, UniProt P10635); experiment: Inhibition of CYP2D6 in human liver microsomes
Cytochrome P450 3A4 = Cytochrome P450 3A4 (Homo sapiens, UniProt P08684); experiment: Inhibition of CYP3A4 in human liver microsomes
[2] = Drug level in rat brain at 30 mg/kg, po after 1 hr; assay type: ADME, organism-based; set-up: dose 30 mg/kg, route oral; settings: read-out: Drug uptake
[3] = Plasma concentration in rat at 30 mg/kg, po after 1 hr; assay type: ADME, organism-based; set-up: dose 30 mg/kg, route oral
Cytochrome P450 2C9 = Cytochrome P450 2C9 (Homo sapiens, UniProt P11712)
Description: Inhibition of CYP2C9 in human liver microsomes

[4] = target: Glutamate receptor ionotropic, NMDA 2A (Homo sapiens, UniProt Q05586+Q12879); experiment: Activity at human NR2A expressed in Ltk- cells by calcium flux assay; assay type: cell-based
[5] = Oral bioavailability in Sprague-Dawley rat at 10 mg/kg, po; assay type: ADME, organism-based; settings: in vivo
Rattus norvegicus [6] = experiment: Reversal of carrageenan-induced mechanical hyperalgesia in iv dosed rat; assay type: functional
[7] = target: T1, Glutamate receptor ionotropic, NMDA 2B; experiment: Antagonist activity at human NR2B expressed in Ltk- cells by calcium flux assay; assay type: functional, cell-based
[8] = Oral bioavailability in Beagle dog at 1 mg/kg, po; assay type: ADME, organism-based, Canis lupus familiaris; settings: in vivo
[9] = Half life in Sprague-Dawley rat at 2 mg/kg, iv; assay type: ADME, organism-based; set-up: dose 2 mg/kg, route intravenous; settings: in vivo
Rattus norvegicus [10] = experiment: AUC in Sprague-Dawley rat at 2 mg/kg, iv; assay type: ADME, organism-based, Plasma; set-up: dose 2 mg/kg, route intravenous; settings: in vivo
Homo sapiens = species on record: Homo sapiens; experiment: Selectivity for human NR2B over hERG
[11] = Half life in Beagle dog at 0.5 mg/kg, iv; assay type: ADME, organism-based, Canis lupus familiaris; set-up: dose 0.5 mg/kg, route intravenous; settings: in vivo
Rattus norvegicus [12] = experiment: Reversal of carrageenan-induced mechanical hyperalgesia in po dosed rat; assay type: functional
Canis familiaris [13] = experiment: AUC in Beagle dog at 0.5 mg/kg, iv; assay type: ADME, organism-based, Canis lupus familiaris, Plasma; set-up: dose 0.5 mg/kg, route intravenous; settings: in vivo
[14] = Cmax in Sprague-Dawley rat at 10 mg/kg, po; assay type: ADME, organism-based; set-up: dose 10 mg/kg, route oral; settings: in vivo
[15] = Cmax in Beagle dog at 1 mg/kg, po; assay type: ADME, organism-based, Canis lupus familiaris; set-up: dose 1 mg/kg, route oral; settings: in vivo
Canis familiaris [16] = experiment: AUC in Beagle dog at 1 mg/kg, iv; assay type: ADME, organism-based, Canis lupus familiaris, Plasma; set-up: dose 1 mg/kg, route intravenous; settings: in vivo
Rattus norvegicus [17] = experiment: Reversal of carrageenan-induced mechanical hyperalgesia in rat at 3 mg/kg, po in presence of indomethacin; assay type: functional, organism-based; set-up: dose 3 mg/kg
Rattus norvegicus [18] = experiment: Reversal of carrageenan-induced mechanical hyperalgesia in iv dosed rat after 15 mins; assay type: functional
[19] = Oral bioavailability in rhesus monkey at 1 mg/kg, po; assay type: ADME, organism-based, Macaca mulatta; settings: in vivo
[20] = target: Glutamate receptor ionotropic, NMDA 2D (Homo sapiens) (UniProt O15399); experiment: Activity at human NR2D expressed in Ltk- cells by patch clamp assay upto 30 uM; assay type: cell-based
[21] = Ratio of drug level in brain against plasma in hyperalgesic rat
[22] = Half life in Beagle dog at 1 mg/kg, iv; assay type: ADME, organism-based, Canis lupus familiaris; set-up: dose 1 mg/kg, route intravenous; settings: in vivo
[23] = target: Glutamate receptor ionotropic, NMDA 2C (Homo sapiens) (UniProt Q14957); experiment: Activity at human NR2C expressed in Ltk- cells by patch clamp assay upto 30 uM; assay type: cell-based
Rattus norvegicus [24] = experiment: […] in rat measured as motor impairment upto 100 mg/kg, po by rotarod assay; assay type: functional, organism-based; set-up: dose 100 mg/kg
Rattus norvegicus [25] = experiment: Reversal of carrageenan-induced mechanical hyperalgesia in rat at 10 mg/kg, po after 1 hr; assay type: functional
[26] = Plasma protein binding in rat; assay type: ADME, cell-free; settings: read-out: PPB (converted)
Rattus norvegicus [27] = experiment: Reversal of allodynia in rat spinal nerve ligation model at 3 mg/kg, iv; assay type: functional, organism-based; set-up: dose 3 mg/kg
[28] = Drug level in hyperalgesic rat plasma at 10 mg/kg, po after 1 hr; assay type: ADME, organism-based; set-up: dose 10 mg/kg, route oral
Rhesus monkey = experiment: AUC in rhesus monkey at 1 mg/kg, iv; assay type: ADME, organism-based, Macaca mulatta, Plasma; set-up: dose 1 mg/kg, route intravenous; settings: in vivo
[29] = Drug level in hyperalgesic rat brain at 10 mg/kg, po after 1 hr; assay type: ADME, organism-based; set-up: dose 10 mg/kg, route oral; settings: read-out: Drug uptake
Rattus norvegicus [30] = experiment: Plasma concentration in haloperidol-induced cataleptic rat at 30 mg/kg, po; assay type: ADME, organism-based; set-up: dose 30 mg/kg, route oral; settings: in vivo
Rattus norvegicus [31] = experiment: Reversal of carrageenan-induced mechanical hyperalgesia in rat at 3 mg/kg, po in presence of morphine; assay type: functional, organism-based; set-up: dose 3 mg/kg
[32] = Cmax in rhesus monkey at 1 mg/kg, po; assay type: ADME, organism-based, Macaca mulatta; set-up: dose 1 mg/kg, route oral; settings: in vivo
[33] = Drug level in hyperalgesic rat plasma at 1 mg/kg, po after 15 mins; assay type: ADME, organism-based; set-up: dose 1 mg/kg, route oral
Rattus norvegicus [34] = experiment: Effect on allodynia in rat spinal nerve ligation model at 30 mg/kg, po; assay type: functional, organism-based; set-up: dose 30 mg/kg
[35] = target: Glutamate receptor ionotropic, NMDA 2B (Rattus norvegicus) (UniProt Q00960); experiment: Receptor occupancy ex vivo by displacement of [3H](E)-N1-(2-methoxybenzyl)-cinnamamidine binding from NR2B in rat brain at 10 uM; assay type: tissue-based
[36] = target: Glutamate receptor ionotropic, NMDA 2A (Homo sapiens) (UniProt Q12879); experiment: Activity at human NR2A expressed in Ltk- cells by patch clamp assay upto 30 uM; assay type: cell-based
[37] = Drug level in hyperalgesic rat brain at 1 mg/kg, po after 15 mins; assay type: ADME, organism-based; set-up: dose 1 mg/kg, route oral; settings: read-out: Drug uptake
Rattus norvegicus [38] = experiment: Reversal of allodynia in rat spinal nerve ligation model at 10 mg/kg, iv; assay type: functional, organism-based; set-up: dose 10 mg/kg
Ltk- = experiment: Activity at human NR1a expressed in Ltk- cells by patch clamp assay upto 30 uM; assay type: cell-based
[39] = Half life in rhesus monkey at 1 mg/kg, iv; assay type: ADME, organism-based, Macaca mulatta; set-up: dose 1 mg/kg, route intravenous; settings: in vivo
[40] = target: Voltage-gated inwardly rectifying potassium channel KCNH2 (Homo sapiens, UniProt Q12809)
Description: Displacement of [35S]MK-499 from hERG potassium channel expressed in HEK293 cells

Chain of Cytochrome P450 3A4 (P08684 whole entry): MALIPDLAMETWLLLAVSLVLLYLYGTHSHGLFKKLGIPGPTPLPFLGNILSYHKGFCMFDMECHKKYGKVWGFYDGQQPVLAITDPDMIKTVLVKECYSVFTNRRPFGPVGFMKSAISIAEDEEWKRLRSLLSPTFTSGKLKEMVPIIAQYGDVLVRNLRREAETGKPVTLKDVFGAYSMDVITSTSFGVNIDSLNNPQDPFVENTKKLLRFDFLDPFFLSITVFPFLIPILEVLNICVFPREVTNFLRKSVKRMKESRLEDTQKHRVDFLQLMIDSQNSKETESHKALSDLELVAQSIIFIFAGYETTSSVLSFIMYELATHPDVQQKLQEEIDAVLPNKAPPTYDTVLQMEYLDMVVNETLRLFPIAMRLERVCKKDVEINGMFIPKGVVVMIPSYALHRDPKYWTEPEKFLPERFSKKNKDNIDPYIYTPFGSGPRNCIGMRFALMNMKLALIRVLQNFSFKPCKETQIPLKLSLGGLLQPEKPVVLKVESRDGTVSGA
T1 sequence (Q13224 whole entry, one chain of several): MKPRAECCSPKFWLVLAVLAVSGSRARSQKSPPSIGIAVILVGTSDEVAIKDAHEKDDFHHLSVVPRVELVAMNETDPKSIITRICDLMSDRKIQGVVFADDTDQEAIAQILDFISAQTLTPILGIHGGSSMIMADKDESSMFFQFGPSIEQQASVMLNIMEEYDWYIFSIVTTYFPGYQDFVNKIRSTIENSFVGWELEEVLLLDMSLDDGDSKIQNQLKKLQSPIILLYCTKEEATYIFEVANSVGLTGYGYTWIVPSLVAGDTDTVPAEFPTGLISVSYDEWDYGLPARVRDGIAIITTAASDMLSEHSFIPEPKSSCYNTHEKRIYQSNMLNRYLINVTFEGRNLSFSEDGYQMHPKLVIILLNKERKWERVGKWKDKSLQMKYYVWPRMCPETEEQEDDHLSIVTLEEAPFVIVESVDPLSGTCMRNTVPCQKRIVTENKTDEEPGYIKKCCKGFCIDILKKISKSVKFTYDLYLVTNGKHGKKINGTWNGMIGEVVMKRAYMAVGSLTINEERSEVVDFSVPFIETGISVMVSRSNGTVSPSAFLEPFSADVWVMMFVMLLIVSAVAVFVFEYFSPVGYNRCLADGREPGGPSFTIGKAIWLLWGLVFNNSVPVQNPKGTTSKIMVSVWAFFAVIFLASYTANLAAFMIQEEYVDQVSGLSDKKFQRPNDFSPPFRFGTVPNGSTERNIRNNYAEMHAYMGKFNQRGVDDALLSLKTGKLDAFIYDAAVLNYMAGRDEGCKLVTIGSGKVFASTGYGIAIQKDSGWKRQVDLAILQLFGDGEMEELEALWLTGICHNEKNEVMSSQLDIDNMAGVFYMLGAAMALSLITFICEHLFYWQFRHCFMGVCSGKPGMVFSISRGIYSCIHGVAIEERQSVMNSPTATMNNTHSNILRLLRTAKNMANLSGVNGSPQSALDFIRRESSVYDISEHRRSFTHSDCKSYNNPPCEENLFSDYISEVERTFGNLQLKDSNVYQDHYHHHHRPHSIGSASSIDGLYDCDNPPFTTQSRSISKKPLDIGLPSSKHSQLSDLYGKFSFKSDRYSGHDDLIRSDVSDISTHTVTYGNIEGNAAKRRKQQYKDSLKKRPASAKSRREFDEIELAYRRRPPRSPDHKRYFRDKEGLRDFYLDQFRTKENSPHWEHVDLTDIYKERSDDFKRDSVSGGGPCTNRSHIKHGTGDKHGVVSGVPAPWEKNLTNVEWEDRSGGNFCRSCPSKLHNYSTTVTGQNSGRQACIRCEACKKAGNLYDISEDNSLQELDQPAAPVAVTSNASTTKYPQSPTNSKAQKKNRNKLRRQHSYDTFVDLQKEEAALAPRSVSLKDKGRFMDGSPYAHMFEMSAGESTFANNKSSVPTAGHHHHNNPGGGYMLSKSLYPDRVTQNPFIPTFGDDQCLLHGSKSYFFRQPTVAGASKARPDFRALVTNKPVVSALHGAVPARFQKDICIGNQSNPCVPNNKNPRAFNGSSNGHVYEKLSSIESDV
Chain of Cytochrome P450 2D6 (P10635 whole entry): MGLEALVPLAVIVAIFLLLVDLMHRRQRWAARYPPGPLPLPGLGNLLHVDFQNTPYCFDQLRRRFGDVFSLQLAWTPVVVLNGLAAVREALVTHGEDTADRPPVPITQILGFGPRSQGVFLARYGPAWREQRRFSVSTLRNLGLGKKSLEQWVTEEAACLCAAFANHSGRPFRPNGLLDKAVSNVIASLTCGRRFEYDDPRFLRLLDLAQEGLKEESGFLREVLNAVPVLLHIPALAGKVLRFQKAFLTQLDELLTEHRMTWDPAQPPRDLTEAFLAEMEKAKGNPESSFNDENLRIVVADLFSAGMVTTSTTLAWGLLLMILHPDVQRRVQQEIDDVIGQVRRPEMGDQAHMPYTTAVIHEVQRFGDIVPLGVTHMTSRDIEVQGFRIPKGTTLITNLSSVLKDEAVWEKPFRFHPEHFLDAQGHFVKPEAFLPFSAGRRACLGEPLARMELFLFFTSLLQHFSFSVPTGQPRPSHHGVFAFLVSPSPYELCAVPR
Chain of Cytochrome P450 2C9 (P11712 whole entry): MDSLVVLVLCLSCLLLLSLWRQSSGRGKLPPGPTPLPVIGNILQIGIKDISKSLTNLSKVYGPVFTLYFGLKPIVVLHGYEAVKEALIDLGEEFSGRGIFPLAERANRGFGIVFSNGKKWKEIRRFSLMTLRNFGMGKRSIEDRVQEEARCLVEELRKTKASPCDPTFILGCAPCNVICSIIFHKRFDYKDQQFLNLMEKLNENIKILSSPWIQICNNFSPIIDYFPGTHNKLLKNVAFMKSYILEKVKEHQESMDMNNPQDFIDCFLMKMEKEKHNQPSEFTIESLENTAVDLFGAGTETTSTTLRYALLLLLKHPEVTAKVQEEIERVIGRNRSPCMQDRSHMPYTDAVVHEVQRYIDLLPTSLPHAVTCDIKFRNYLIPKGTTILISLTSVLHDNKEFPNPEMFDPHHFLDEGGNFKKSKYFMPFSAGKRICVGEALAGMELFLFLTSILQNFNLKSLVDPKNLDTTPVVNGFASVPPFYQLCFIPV
Chain of Glutamate receptor ionotropic, NMDA 2A (Q12879 whole entry, one chain of several): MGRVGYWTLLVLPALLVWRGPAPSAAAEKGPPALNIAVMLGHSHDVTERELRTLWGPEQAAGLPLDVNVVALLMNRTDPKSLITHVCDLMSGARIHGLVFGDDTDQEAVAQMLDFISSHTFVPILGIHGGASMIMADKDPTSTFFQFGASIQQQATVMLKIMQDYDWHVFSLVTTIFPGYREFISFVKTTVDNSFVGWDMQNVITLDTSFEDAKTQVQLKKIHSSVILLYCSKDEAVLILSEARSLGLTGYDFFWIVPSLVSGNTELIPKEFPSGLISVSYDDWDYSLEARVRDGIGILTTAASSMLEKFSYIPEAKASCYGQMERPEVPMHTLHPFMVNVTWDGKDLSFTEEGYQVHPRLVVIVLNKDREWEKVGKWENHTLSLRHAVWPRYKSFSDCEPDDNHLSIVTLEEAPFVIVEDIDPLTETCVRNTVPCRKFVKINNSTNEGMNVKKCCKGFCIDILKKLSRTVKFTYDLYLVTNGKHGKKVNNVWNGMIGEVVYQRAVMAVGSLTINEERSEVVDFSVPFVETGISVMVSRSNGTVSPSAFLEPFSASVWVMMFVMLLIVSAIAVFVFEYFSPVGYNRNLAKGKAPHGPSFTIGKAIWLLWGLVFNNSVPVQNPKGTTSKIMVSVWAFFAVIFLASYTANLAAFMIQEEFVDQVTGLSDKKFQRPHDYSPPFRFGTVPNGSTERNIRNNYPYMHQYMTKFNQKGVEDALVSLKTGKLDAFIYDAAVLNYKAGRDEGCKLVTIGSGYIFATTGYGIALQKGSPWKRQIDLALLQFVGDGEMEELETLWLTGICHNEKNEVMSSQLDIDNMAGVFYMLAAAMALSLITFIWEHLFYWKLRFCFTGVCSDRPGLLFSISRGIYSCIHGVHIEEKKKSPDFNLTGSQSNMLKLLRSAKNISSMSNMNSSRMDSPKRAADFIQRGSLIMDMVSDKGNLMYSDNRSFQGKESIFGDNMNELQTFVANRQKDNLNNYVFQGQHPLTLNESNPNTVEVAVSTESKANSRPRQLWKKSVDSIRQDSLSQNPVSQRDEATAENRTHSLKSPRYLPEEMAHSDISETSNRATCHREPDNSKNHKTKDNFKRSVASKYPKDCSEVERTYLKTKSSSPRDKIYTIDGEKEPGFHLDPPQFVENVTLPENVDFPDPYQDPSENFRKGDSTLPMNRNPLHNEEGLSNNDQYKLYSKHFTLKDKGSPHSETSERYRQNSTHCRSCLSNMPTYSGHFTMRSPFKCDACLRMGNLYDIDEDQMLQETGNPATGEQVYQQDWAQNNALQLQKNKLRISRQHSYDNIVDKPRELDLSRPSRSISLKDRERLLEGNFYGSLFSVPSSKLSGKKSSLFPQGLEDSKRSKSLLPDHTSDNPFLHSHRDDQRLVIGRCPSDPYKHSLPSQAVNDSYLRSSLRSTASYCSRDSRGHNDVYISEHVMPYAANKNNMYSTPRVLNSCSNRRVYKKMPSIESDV

SMILES: O=C(OCc1ccccc1)N1CCC(CNc2ccccn2)CC1
IC50 (Cytochrome P450 2D6): > 25000 nM
IC50 (Cytochrome P450 3A4): > 25000 nM
concentration at 1 h [2]: 170 nM
Ki [1]: 37 nM
concentration at 1 h [3]: 180 nM
IC50 (Cytochrome P450 2C9): > 25000 nM

SMILES: COc1ccc(COC(=O)N2CCC(CNc3ncccn3)CC2)cc1
Ki [1]: 460 nM

SMILES: Cc1ccc(COC(=O)N2CCC(CNc3ncccn3)CC2)cc1
AUC (Canis familiaris [16]): 7.5 µM·h
Activity (Rattus norvegicus [17]): Active
ED50 (Rattus norvegicus [18]): 1 mg/kg
bioavailability [19]: 26%
Activity [20]: < 30%
Kp [21]: 1.4
bioavailability [5]: 45%
half-life [22]: 6.9 h
EC50 [7]: 5.6 nM
Activity [23]: < 30%
Activity (Rattus norvegicus [24]): inactive
Activity (Rattus norvegicus [25]): 50%
fraction unbound [26]: 0.153
Activity (Rattus norvegicus [27]): Active
bioavailability [8]: 24%
concentration at 1 h [28]: 1800 nM
half-life [9]: 2.7 h
AUC (Rhesus monkey): 5.2 µM·h
concentration at 1 h [29]: 850 nM
concentration (Rattus norvegicus [30]): 10200 nM
AUC (Rattus norvegicus [10]): 7.1 µM·h
Activity (Rattus norvegicus [31]): Active
Cmax [32]: 600 nM
concentration at […] [33]: 960 nM
Activity (Rattus norvegicus [34]): Active
Activity [35]: Active
Activity [36]: < 30%
Ki [1]: 3.4 nM
Cmax [14]: 3900 nM
concentration at […] [37]: 510 nM
Activity (Rattus norvegicus [38]): Active
Cmax [15]: 840 nM
Activity (Ltk-): < 30%
half-life [39]: 2.2 h

SMILES: c1ccc(COc2ccc(CCNc3ccncc3)cc2)cc1
IC50 [4]: > 20000 nM
IC50 [7]: 102 nM
IC50 [40]: 130 nM
Ki [1]: 93 nM

SMILES: O=C(OCc1ccccc1)N1CCC(CNc2ccncn2)CC1
IC50 (Cytochrome P450 2D6): 1300 nM
concentration at 1 h [2]: 700 nM
Ki [1]: 75 nM
concentration at 1 h [3]: 1100 nM
IC50 (Cytochrome P450 2C9): 500 nM

SMILES: O=C(OCCc1ccccc1)N1CCC(CNc2ncccn2)CC1
Ki [1]: 227 nM

SMILES: Cc1ccccc1COC(=O)N1CCC(CNc2ncccn2)CC1
Ki [1]: 227 nM

SMILES: O=C(OCc1ccc(F)cc1)N1CCC(CNc2ncccn2)CC1
Ki [1]: 18 nM

SMILES: CCc1ccc(COC(=O)N2CCC(CNc3ncccn3)CC2)cc1
Ki [1]: 3.7 nM

SMILES: O=C(OCc1ccccc1)N1CCC(CNc2nccs2)CC1
IC50 (Cytochrome P450 2D6): > 10000 nM
IC50 (Cytochrome P450 3A4): > 10000 nM
Ki [1]: 122 nM
IC50 (Cytochrome P450 2C9): > 10000 nM

SMILES: Cc1cccc(COC(=O)N2CCC(CNc3ncccn3)CC2)c1
Ki [1]: 206 nM

SMILES: O=C(OCc1cccc(F)c1)N1CCC(CNc2ncccn2)CC1
Ki [1]: 150 nM

SMILES: c1ccc(CCCN2CCC(CNc3ncccn3)CC2)cc1
Ki [1]: 266 nM

SMILES: Cc1ccc(COC(=O)N2CCC(Nc3ncccn3)CC2)cc1
Ki [1]: > 15000 nM

SMILES: O=C(OCc1ccccc1)N1CCC(CNc2nncs2)CC1
IC50 (Cytochrome P450 2D6): > 25000 nM
Ki [1]: 190 nM

SMILES: CC(C)(C)c1ccc(COC(=O)N2CCC(CNc3ncccn3)CC2)cc1
Ki [1]: 720 nM

SMILES: CC(C)c1ccc(COC(=O)N2CCC(CNc3ncccn3)CC2)cc1
Ki [1]: 7.8 nM

Second part, led by results:

Ki [1]: 2100 nM
SMILES: Cc1ccc(COC(=O)N2CCC(CN(C)c3ncccn3)CC2)cc1

Ki [1]: 23 nM
SMILES: O=C(OC1Cc2ccccc2C1)N1CCC(CNc2ncccn2)CC1

EC50 [4]: > 10000 nM
IC50 (Cytochrome P450 2D6): 15000 nM
bioavailability [5]: > 100%
IC50 (Cytochrome P450 3A4): > 25000 nM
EC50 [7]: 1.6 nM
bioavailability [8]: 11%
half-life [9]: 1.4 h
AUC (Rattus norvegicus [10]): 1.9 µM·h
concentration at 1 h [2]: 11000 nM
half-life [11]: 6.5 h
Ki [1]: 10.6 nM
concentration at 1 h [3]: 8100 nM
IC50 (Cytochrome P450 2C9): 6500 nM
AUC (Canis familiaris [13]): 1.7 µM·h
Cmax [14]: 5200 nM
Cmax [15]: 50 nM
SMILES: O=C(OCc1ccccc1)N1CCC(CNc2ccncc2)CC1
ED50 (Rattus norvegicus [6]): 3 mg/kg
Selectivity ratio (Homo sapiens): 90
ED50 (Rattus norvegicus [12]): 10 mg/kg

Ki [1]: 1170 nM
SMILES: O=C(NCc1ccccc1)N1CCC(CNc2ncccn2)CC1

Ki [1]: 540 nM
SMILES: CC(OC(=O)N1CCC(CNc2ncccn2)CC1)c1ccccc1 (racemic)

IC50 (Cytochrome P450 2D6): > 25000 nM
IC50 (Cytochrome P450 3A4): > 25000 nM
concentration at 1 h [2]: 3100 nM
Ki [1]: 23 nM
concentration at 1 h [3]: 7200 nM
IC50 (Cytochrome P450 2C9): > 25000 nM
SMILES: O=C(OCc1ccccc1)N1CCC(CNc2ncccn2)CC1

Ki [1]: 310 nM
SMILES: O=C(CCc1ccccc1)N1CCC(CNc2ncccn2)CC1

IC50 (Cytochrome P450 2D6): 1700 nM
IC50 (Cytochrome P450 3A4): 9100 nM
Ki [1]: 180 nM
IC50 (Cytochrome P450 2C9): 12000 nM
SMILES: O=C(OCc1ccccc1)N1CCC(CNc2cccnc2)CC1

Ki [1]: 18 nM
SMILES: O=C(OCc1ccccc1F)N1CCC(CNc2ncccn2)CC1

Ki [1]: 220 nM
SMILES: O=C(OCc1ccccc1)N1CCC(Cc2nc3ccccc3[nH]2)CC1

Ki [1]: 7400 nM
SMILES: Cc1ccc(COC(=O)N2CCC(COc3ncccn3)CC2)cc1

IC50 (Cytochrome P450 2D6): 1700 nM
IC50 (Cytochrome P450 3A4): 22000 nM
Ki [1]: 14 nM
IC50 (Cytochrome P450 2C9): 12000 nM
SMILES: O=C(OCc1ccccc1)N1CCC(CNc2cnccn2)CC1

Ki [1]: 3100 nM
SMILES: N#CN=C(NCc1ccccc1)NN1CCC(CNc2ncccn2)CC1
